This note sets out measurements from ChEMBL document CHEMBL3576789, “Origins of the Quinolone Class of Antibacterials: An Expanded "Discovery Story"” (2015).

The subject of assay [1] is Escherichia coli. The assay can be described thus: Antimicrobial activity against Escherichia coli NIHJ. Type of assay: functional.
For assay [2], the system named is Klebsiella pneumoniae. The assay can be described thus: Antimicrobial activity against Klebsiella pneumoniae 602. Type of assay: functional.
The subject of another assay is Proteus vulgaris. The assay can be described thus: Antimicrobial activity against Proteus vulgaris HX19. Type of assay: functional.
The next assay deals with Proteus mirabilis. The assay can be described thus: Antimicrobial activity against Proteus mirabilis GN2425. Type of assay: functional.
The subject of assay [3] is Pseudomonas aeruginosa. The assay can be described thus: Antimicrobial activity against Pseudomonas aeruginosa 104. The assay is classed as functional.
The test system of assay [4] is Staphylococcus aureus. The assay can be described thus: Antimicrobial activity against Staphylococcus aureus 209P. Type of assay: functional.
In a further assay the test system is Salmonella typhi. The assay can be described thus: Antimicrobial activity against Salmonella typhi T58. The settings on record: Salmonella enterica. Type of assay: functional, Salmonella enterica subsp. enterica serovar Typhi.
Assay [5] relates to Pseudomonas aeruginosa. The assay can be described thus: Antimicrobial activity against Pseudomonas aeruginosa TU408. The assay is classed as functional.
Assay [6] relates to Staphylococcus aureus. The assay can be described thus: Antimicrobial activity against Staphylococcus aureus 209p JC1. Type of assay: functional.
In assay [7] the test system is Klebsiella pneumoniae. The assay can be described thus: Antimicrobial activity against Klebsiella pneumoniae PCI602. The assay is classed as functional.
Assay [8] relates to Escherichia coli. The assay can be described thus: Antimicrobial activity against Escherichia coli NIHJ JC2. Type of assay: functional.

The structures appear in SMILES notation. Converted amounts (≈) assume the structure as drawn.

For `CCn1cc(C(=O)O)c(=O)c2ccc(Cl)cc21`, the minimal inhibitory concentration (MIC) in the assay on Escherichia coli [1] was 25 µg/mL (≈ 99.3 µM); in the assay on Klebsiella pneumoniae [2], 25 µg/mL (≈ 99.3 µM); in the assay with Proteus vulgaris it was 25 µg/mL (≈ 99.3 µM); in the assay with Proteus mirabilis, 12.5 µg/mL (≈ 49.7 µM); with Pseudomonas aeruginosa [3], 200 µg/mL (≈ 795 µM); with Staphylococcus aureus [4] it was 50 µg/mL (≈ 199 µM).
In the case of `CCn1cc(C(=O)O)c(=O)c2ccc(C)nc21` [NALIDIXIC ACID], the MIC was 6.25 µg/mL (≈ 26.9 µM) with Salmonella typhi; more than 50 µg/mL against Pseudomonas aeruginosa [5]; 3.13 µg/mL (≈ 13.5 µM) with Escherichia coli [1]; more than 50 µg/mL with Staphylococcus aureus [6]; 6.25 µg/mL (≈ 26.9 µM) with Klebsiella pneumoniae [7]; 6.25 µg/mL (≈ 26.9 µM) in the assay with Klebsiella pneumoniae [2]. The MIC with Proteus vulgaris was determined as 1.56 µg/mL (≈ 6.72 µM); in the assay on Proteus mirabilis it was 12.5 µg/mL (≈ 53.8 µM); with Escherichia coli [8], 6.25 µg/mL (≈ 26.9 µM); against Pseudomonas aeruginosa [3] it was 200 µg/mL (≈ 861 µM); in the assay on Staphylococcus aureus [4], 100 µg/mL (≈ 431 µM).
As for `CCn1cc(C(=O)O)c(=O)c2ccc(C)cc21`, the MIC is 12.5 µg/mL (≈ 54.1 µM) in the assay with Salmonella typhi; more than 50 µg/mL with Pseudomonas aeruginosa [5]; 6.25 µg/mL (≈ 27 µM) in the assay on Escherichia coli [1]; more than 50 µg/mL against Staphylococcus aureus [6]; 6.25 µg/mL (≈ 27 µM) in the assay on Klebsiella pneumoniae [7]; 25 µg/mL (≈ 108 µM) with Klebsiella pneumoniae [2]. Also, the minimal inhibitory concentration (MIC) is 12.5 µg/mL (≈ 54.1 µM) in the assay on Proteus vulgaris; 12.5 µg/mL (≈ 54.1 µM) in the assay on Proteus mirabilis; 6.25 µg/mL (≈ 27 µM) with Escherichia coli [8]; more than 200 µg/mL with Pseudomonas aeruginosa [3]; 200 µg/mL (≈ 865 µM) against Staphylococcus aureus [4].

Usually MIC stands for the smallest concentration in the dilution series that meets the test's criterion for growth inhibition. High values mean a less susceptible organism, low ones a more susceptible organism.
